Reference: ChEMBL document CHEMBL1201862, “PubChem BioAssay data set” (2004)
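Compound exposure: 48 hours, 5 concentrations, 96-well plates. GI50: concentration for 50% inhibition of growth.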 Activity calls are given as the source filed them. Rule as the data show it: active = GI50 up to about 1.1 µM and inactive = higher.

Experiments:
Assay in all cases: NCI-60 cell line screen, 48 h
T47D = system: T47D
LOX IMVI = system: LOX IMVI
PC-3 = system: PC-3
MDA-MB-231 = system: MDA-MB-231
HOP-62 = system: HOP-62
OVCAR-8 = system: OVCAR-8
HCT-15 = system: HCT-15
ACHN = system: ACHN
SN12C = system: SN12C
M14 = system: M14
HT-29 = system: HT-29
SK-MEL-28 = system: SK-MEL-28
HOP-92 = system: HOP-92
NCI/ADR-RES = system: NCI/ADR-RES
Malme-3M = system: Malme-3M
TK-10 = system: TK-10
SNB-19 = system: SNB-19
CCRF-CEM = system: CCRF-CEM
A498 = system: A498
U-251 = system: U-251
SK-OV-3 = system: SK-OV-3
UACC-62 = system: UACC-62
MDA-N = system: MDA-N
SW-620 = system: SW-620
HCT-116 = system: HCT-116
KM12 = system: KM12
SF-539 = system: SF-539
OVCAR-5 = system: OVCAR-5
HCC 2998 = system: HCC 2998
MOLT-4 = system: MOLT-4
NCI-H460 = system: NCI-H460
K562 = system: K562
SNB-75 = system: SNB-75
NCI-H23 = system: NCI-H23
IGROV-1 = system: IGROV-1
COLO 205 = system: COLO 205
SF-268 = system: SF-268
CAKI-1 = system: CAKI-1
RXF 393 = system: RXF 393
NCI-H522 = system: NCI-H522
786-0 = system: 786-0
OVCAR-4 = system: OVCAR-4
DU-145 = system: DU-145
MDA-MB-435 = system: MDA-MB-435
EKVX = system: EKVX
HL-60 = system: HL-60
SF-295 = system: SF-295
SK-MEL-2 = system: SK-MEL-2
OVCAR-3 = system: OVCAR-3
UO-31 = system: UO-31
NCI-H226 = system: NCI-H226
UACC-257 = system: UACC-257
A549 = system: A549
MCF7 = system: MCF7
SK-MEL-5 = system: SK-MEL-5
Hs-578T = system: Hs-578T
RPMI-8226 = system: RPMI-8226
SR = system: SR

Measured: GI50

Sc1nnc(COc2ccc(Cl)cc2)n1-c1ccccc1
> 100 µM: HCT-15
inactive: T47D 30.4 µM | LOX IMVI 49.3 µM | PC-3 > 100 µM | MDA-MB-231 > 100 µM | HOP-62 > 100 µM | OVCAR-8 > 100 µM | ACHN > 100 µM | SN12C > 100 µM | M14 > 100 µM | HT-29 > 100 µM | SK-MEL-28 > 100 µM | HOP-92 > 100 µM | NCI/ADR-RES > 100 µM | Malme-3M > 100 µM | TK-10 > 100 µM | SNB-19 > 100 µM | CCRF-CEM 74.1 µM | A498 > 100 µM | U-251 > 100 µM | SK-OV-3 > 100 µM | UACC-62 > 100 µM | MDA-N > 100 µM | SW-620 > 100 µM | HCT-116 46.1 µM | KM12 > 100 µM | SF-539 > 100 µM | OVCAR-5 > 100 µM | HCC 2998 > 100 µM | MOLT-4 88.3 µM | NCI-H460 > 100 µM | K562 95.7 µM | SNB-75 > 100 µM | NCI-H23 > 100 µM | IGROV-1 > 100 µM | COLO 205 88.1 µM | SF-268 > 100 µM | CAKI-1 17.5 µM | RXF 393 > 100 µM | NCI-H522 5.4 µM | 786-0 > 100 µM | OVCAR-4 > 100 µM | DU-145 > 100 µM | MDA-MB-435 > 100 µM | EKVX > 100 µM | HL-60 > 100 µM | SF-295 > 100 µM | SK-MEL-2 > 100 µM | OVCAR-3 > 100 µM | UO-31 61.2 µM | NCI-H226 > 100 µM | UACC-257 > 100 µM | A549 > 100 µM | MCF7 > 100 µM

O=C(CN1CCOCC1)c1ccc2c(c1)oc(=O)n2CCN1CCOCC1
inactive: SK-MEL-5 > 100 µM | LOX IMVI > 100 µM | PC-3 > 100 µM | MDA-MB-231 > 100 µM | HOP-62 > 100 µM | OVCAR-8 > 100 µM | SN12C > 100 µM | M14 > 100 µM | HT-29 > 100 µM | SK-MEL-28 > 100 µM | NCI/ADR-RES > 100 µM | Malme-3M > 100 µM | SNB-19 > 100 µM | CCRF-CEM > 100 µM | A498 > 100 µM | U-251 > 100 µM | SK-OV-3 > 100 µM | MDA-N > 100 µM | SW-620 > 100 µM | HCT-116 > 100 µM | KM12 > 100 µM | SF-539 > 100 µM | OVCAR-5 > 100 µM | MOLT-4 > 100 µM | K562 > 100 µM | SNB-75 > 100 µM | Hs-578T > 100 µM | IGROV-1 > 100 µM | COLO 205 > 100 µM | SF-268 > 100 µM | CAKI-1 > 100 µM | RXF 393 > 100 µM | RPMI-8226 > 100 µM | 786-0 > 100 µM | DU-145 > 100 µM | MDA-MB-435 > 100 µM | EKVX > 100 µM | HL-60 > 100 µM | SF-295 > 100 µM | SK-MEL-2 > 100 µM | OVCAR-3 > 100 µM | NCI-H226 > 100 µM | SR > 100 µM | MCF7 > 100 µM
